Results: US20090258873A1, “Novel tetrahydropyridothiophenes” (priority 2005, published 2009)

Tests used:
[1] = tested on: RKO (RKOp27) human colon adenocarcinoma cells; assay: Alamar Blue cell viability assay, anti-proliferative/cytotoxic activity on proliferating RKOp27 cells; assay type: cell-based; conditions: no Ponasterone A, 72 hours incubation, read-out: IC50 RKO p27 uninduced (proliferating)
Method: The anti-proliferative I cytotoxic activity of the compounds described herein, can be tested on subclones of RKO (RKOp27) human colon adenocarcinoma cells (Schmidt et al., Oncogene 19, 2423-2429; 2000) using the Alamar Blue cell viability assay (described in O'Brien et al. Eur J Biochem 267, 5421-5426, 2000). The compounds are dissolved as 20 mM solutions in dimethylsulfoxide (DMSO) and subsequently diluted in semi-logarithmic steps. DMSO dilutions are further diluted 1:100 into Dulbecco's modified Eagle's medium (DMEM) containing 10% fetal calf serum to a final concentration twice as much as the final concentration in the test. RKO subclones are seeded into 96 well flat bottom plates at a density of 5000 cells per well in a volume of 50 μl per well. 24 hours after seeding the 50 μl each of the compound dilutions in DMEM medium are added into each well of the 96 Well plate. Each compound dilution is tested as quadruplicates. Wells containing untreated control cells are filled with 50 μl DMEM medium containing 1% DMSO. The cells are then incubated with the substances for 72 hours at 37° C. in a hunified atmosphere containing 5% carbon dioxide. To determine the viability of the cells, 10 μl of an Alamar Blue solution (Biosource) are added and the fluorescence is measured at an extinction of 544 nm and an emission of 590 nm. For the calculation of the cell viability the emission value from untreated cells is set as 100% viability and the emission rates of treated cells are set in relation to the values of untreated cells. Viabilities are expressed as % values.
The corresponding IC50 values of the compounds for anti-proliferative/cytotoxic activity are determined from the concentration-effect curves.
Representative IC50 values for anti-proliferation/cytotoxicity determined in the mentioned assay follow from the following table A, in which the numbers of the compounds correspond to the numbers of the examples.

[2] = tested on: RKO colon adenocarcinoma cells (RKOp27) arrested by ectopic p27Kip1; assay: Alamar Blue cell viability assay on RKOp27 cells arrested by p27Kip1 expression induced with Ponasterone A (cell cycle specific mode of action); assay type: cell-based; conditions: Homo sapiens, RKOp27 cells arrested by p27Kip1 induced with 10 μM Ponasterone A, 72 hours incubation, read-out: IC50 RKO p27 induced (arrested)
Method: To determine the cell cycle specific mode of action, subclones of RKO colon adenocarcinoma cells (RKOp27 or RKOp21 as described by Schmidt et al. in Oncogene 19, 2423-2429; 2000) are seeded into 96 well flat bottom plates at a density of 15000 cells per well in a volume of 50 μl per well in DMEM growth medium with 10% FCS containing 10 μM Ponasterone A. 24 hours after seeding the 50 μl each of the compound dilutions in DMEM medium are added into each well of the 96 Well plate. Each compound dilution is tested as quadruplicates. Wells containing untreated control cells are filled with 50 μl DMEM medium containing 1% DMSO. The cells are then incubated with the substances for 72 hours at 37° C. in a humidified atmosphere containing 5% carbon dioxide. To determine the viability of the cells, 10 μl of an Alamar Blue solution (Biosource) are added and the fluorescence was measured at an extinction of 544 nm and an emission of 590 nm. For the calculation of the cell viability the emission value from untreated cells is set as 100% viability and the emission rates of treated cells are set in relation to the values of untreated cells. Viabilities are expressed as % values. Viability is compared of proliferating cells grown in the absence of the inducer Ponasterone A, versus viability of cells arrested by the expression of ectopic p27Kip1 induced by Ponasterone A.

IC50 [2]	SMILES	IC50 [1]
> 100000 nM	CC(CC(=O)Nc1sc2c(c1C#N)CCN(C(=O)Cc1ccccn1)C2)c1ccccc1 (racemic) [Example 22, (RS)—N-[3-Cyano-6-(2-pyridin-2-yl-ethanoyl)-4,5,6,7-tetrahydro-thieno[2,3-c]pyridin-2-yl]-3-phenyl-butyramide]	≤ 300 nM
> 100000 nM	CC(CC(=O)Nc1sc2c(c1C#N)CCN(C(=O)Cc1cccnc1)C2)c1ccccc1 (racemic) [Example 23, (RS)—N-[3-Cyano-6-(2-pyridin-3-yl-ethanoyl)-4,5,6,7-tetrahydro-thieno[2,3-c]pyridin-2-yl]-3-phenyl-butyramide]	≤ 300 nM
> 100000 nM	CC(CC(=O)Nc1sc2c(c1C#N)CCN(C(=O)Cc1ccncc1)C2)c1ccccc1 (racemic) [Example 24, (RS)—N-[3-Cyano-6-(2-pyridin-4-yl-ethanoyl)-4,5,6,7-tetrahydro-thieno[2,3-c]pyridin-2-yl]-3-phenyl-butyramide]	≤ 300 nM
> 100000 nM	CC(CC(=O)Nc1sc2c(c1C#N)CCN(C(=O)CCc1cccnc1)C2)c1ccccc1 (racemic) [Example 25, (RS)—N-[3-Cyano-6-(3-pyridin-3-yl-propanoyl)-4,5,6,7-tetrahydro-thieno[2,3-c]pyridin-2-yl]-3-phenyl-butyramide]	300 to 2000 nM
> 100000 nM	CC(CC(=O)Nc1sc2c(c1C#N)CCN(C(=O)Cn1ccnc1)C2)c1ccccc1 (racemic) [Example 26]	300 to 2000 nM
> 100000 nM	CCCC(=O)N1CCc2c(sc(NC(=O)CC(C)c3ccccc3)c2C#N)C1 (racemic) [Example 27, (RS)—N-(6-Butyryl-3-cyano-4,5,6,7-tetrahydro-thieno[2,3-c]pyridin-2-yl)-3-phenyl-butyramide]	300 to 2000 nM
> 100000 nM	CC(CC(=O)Nc1sc2c(c1C#N)CCN(C(=O)CCc1ccccn1)C2)c1ccccc1 (racemic) [Example 29, (RS)—N-[3-Cyano-6-(3-pyridin-2-yl-propanoyl)-4,5,6,7-tetrahydro-thieno[2,3-c]pyridin-2-yl]-3-phenyl-butyramide]	300 to 2000 nM
> 100000 nM	CC(CC(=O)Nc1sc2c(c1C#N)CCN(C(=O)CCn1ccnc1)C2)c1ccccc1 (racemic) [Example 31]	300 to 2000 nM
≥ 10000 nM	Cc1nccn1CCC(=O)N1CCc2c(sc(NC(=O)CC(C)c3ccccc3)c2C#N)C1 (racemic) [Example 32, (RS)—N-{3-Cyano-6-[3-(2-methyl-imidazol-1-yl)-propanoyl]-4,5,6,7-tetrahydro-thieno[2,3-c]pyridin-2-yl}-3-phenyl-butyramide]	300 to 2000 nM
≥ 10000 nM	CC(CC(=O)Nc1sc2c(c1C#N)CCN(C(=O)CCc1nccn1C)C2)c1ccccc1 (racemic) [Example 34, (RS)—N-{3-Cyano-6-[3-(1-methyl-1H-imidazol-2-yl)-propanoyl]-4,5,6,7-tetrahydro-thieno[2,3-c]pyridin-2-yl}-3-phenyl-butyramide]	≤ 300 nM
≥ 10000 nM	CC(CC(=O)Nc1sc2c(c1C#N)CCN(C(=O)CCc1ccncc1)C2)c1ccccc1 (racemic) [Example 36, (RS)—N-[3-Cyano-6-(3-pyridin-4-yl-propanoyl)-4,5,6,7-tetrahydro-thieno[2,3-c]pyridin-2-yl]-3-phenyl-butyramide]	300 to 2000 nM
≥ 40000 nM	Cc1nccn1CC(=O)N1CCc2c(sc(NC(=O)CC(C)c3ccccc3)c2C#N)C1 (racemic) [Example 37, (RS)—N-{3-Cyano-6-[2-(2-methyl-imidazo-1-yl)-ethanoyl]-4,5,6,7-tetrahydro-thieno[2,3-c]pyridin-2-yl}-3-phenyl-butyramide]	≤ 300 nM
≥ 40000 nM	Cc1cn(CC(=O)N2CCc3c(sc(NC(=O)CC(C)c4ccccc4)c3C#N)C2)cn1 (racemic) [Example 40, (RS)—N-{3-Cyano-6-[2-(4-methyl-imidazol-yl)-ethanoyl]-4,5,6,7-tetrahydro-thieno[2,3-c]pyridin-2-yl}-3-phenyl-butyramide]	300 to 2000 nM
≥ 10000 nM	Cc1cn(CC(=O)N2CCc3c(sc(NC(=O)CC(C)c4ccccc4)c3C#N)C2)c(C)n1 (racemic) [Example 42, (RS)—N-{3-Cyano-6-[2-(2,4-dimethyl-midazol-1-yl)-ethanoy]-4,5,6,7-tetrahydro-thieno[2,3-c]pyridin-2-yl}-3-phenyl-butyramide]	300 to 2000 nM
> 100000 nM	N#Cc1c(NC(=O)CCc2ccccc2)sc2c1CCN(C(=O)CCc1cccnc1)C2 [Example 1, N-[3-Cyano-6-(3-pyridn3-yl-propanoyl)-4,5,6,7-tetrahydro-thieno[2,3-c]pyridin-2-yl]-3-phenyl-propionamide]	300 to 2000 nM
> 100000 nM	N#Cc1c(NC(=O)CCc2ccccc2)sc2c1CCN(C(=O)Cc1cccnc1)C2 [Example 2, N-[3-Cyano-6-(2-pyridin-3-yl-ethanoyl)-4,5,6,7-tetrahydro-thieno[2,3-]pyridin-2-yl]-3-phenyl-propionamide]	≤ 300 nM
> 100000 nM	N#Cc1c(NC(=O)CCc2ccccc2)sc2c1CCN(C(=O)Cc1ccccn1)C2 [Example 3, N-[3-Cyano-(2-pyridin-2-yl-ethanoyl)-4,5,6,7-tetrahydro-thieno[2,3-]pyridin-2-yl]-3-phenyl-propionamide]	≤ 300 nM
> 100000 nM	COCC(=O)N1CCc2c(sc(NC(=O)CCc3ccccc3)c2C#N)C1 [Example 4, N-[3-Cyano-6-(2-methoxy-ethanoyl)-4,5,6,7-tetrahydro-thieno[2,3-c]pyridin-2-yl]-3-phenyl-propionamide]	≤ 300 nM
> 100000 nM	COCCOCC(=O)N1CCc2c(sc(NC(=O)CCc3ccccc3)c2C#N)C1 [Example 5]	300 to 2000 nM
> 100000 nM	CC(=O)OCC(=O)N1CCc2c(sc(NC(=O)CCc3ccccc3)c2C#N)C1 [Example 7, Acetic acid 2-[3-cyano-2-(3-phenyl-propanoylamino)-4,7-dihydro-5H-thieno[2,3-c]pyridin-6-yl]-2-oxo-ethyl ester]	≤ 300 nM
> 100000 nM	COCCOCC(=O)N1CCc2c(sc(NC(=O)CCc3ccco3)c2C#N)C1 [Example 9, N-{3-Cyano-6-[2-(2-methoxy-ethoxy)-ethanoyl]-4,5,6,7-tetrahydro-thieno[2,3-c]pyridin-2-yl}-3-furan-2-yl-propionamide]	≤ 300 nM
> 100000 nM	N#Cc1c(NC(=O)CCc2ccco2)sc2c1CCN(C(=O)Cc1ccccn1)C2 [Example 10, N-[3-Cyano-6-(2-pyridin-2-yl-ethanoyi)-4,5,6,7-tetrahydro-thieno[2,3-c]pyridin-2-yl]-3-furan-2-yl-propionamide]	≤ 300 nM
> 100000 nM	N#Cc1c(NC(=O)CCc2ccco2)sc2c1CCN(C(=O)Cc1cccnc1)C2 [Example 11, N-[3-Cyano-6-(2-pyridin-3-yl-ethanoyl)-4,5,6,7-tetrahydro-thieno[2,3-c]pyridin-2-yl]-3-furan-2-yl-propionamide]	≤ 300 nM
> 100000 nM	N#Cc1c(NC(=O)CCc2ccco2)sc2c1CCN(C(=O)CCc1cccnc1)C2 [Example 12, N-[3-Cyano-4-6-(3-pyridin-3-yl-propanoyl)-4,5,6,7-tetrahydro-thieno[2,3-c]pyridin-2-yl]-3-furan-2-yl-propionamide]	≤ 300 nM
> 100000 nM	COCC(=O)N1CCc2c(sc(NC(=O)CCc3ccco3)c2C#N)C1 [Example 13, N-[3-Cyano-6-(2-methoxy-ethanoyl)-4,5,6,7-tetrahydro-thieno[2,3-c]pyridin-2-yl]-3-furan-2-yl-propionamide]	≤ 300 nM
> 100000 nM	CCCC(=O)N1CCc2c(sc(NC(=O)CCc3ccco3)c2C#N)C1 [Example 14, N-(6-Butyryl-3-cyano-4,5,6,7-tetrahydro-thieno[2,3-c]pyridin-2-yl)-3-furan-2-yl-propionamide]	≤ 300 nM
